# Assay results taken from patent publication US9663451B2, “Forms of co-crystals of agomelatine and p toluenesulphonic acid, a process for their preparation and pharmaceutical compositions containing them” (LES LABORATOIRES SERVIER, priority 2013, dated 2017).
# What was measured:
# [1] = Stability of samples in incubators, determined by HPLC; type: physicochemical; conditions: 30 days
# [2] = Solubility by HPLC (external standard method) compared with agomelatine of form II; type: physicochemical
# Method: By means of an external standard method, the compounds of Examples 1 and 2 are tested by HPLC and compared with agomelatine of form II. The results are presented in Table 4 in the form of % increase in solubility relative to the solubility of agomelatine of form II: […]
"Stability ([1]; 25° C., 60% RH, open bottle)","Stability ([1]; 40° C., 75% RH, open bottle)","Stability ([1]; 50° C., closed bottle)","Stability ([1]; 70° C., closed bottle)",Solubility (increase versus agomelatine form II) in 0.1N HCl [2],Solubility (increase versus agomelatine form II) in a buffer pH 6.8 [2],Solubility (increase versus agomelatine form II) in water [2],Compound
Stable,Stable,Stable,Stable,+50%,+49%,+41%,"COc1ccc2cccc(CCNC(C)=O)c2c1.Cc1ccc(S(=O)(=O)O)cc1.O [Compound of Example 1, Agomelatine/p-Toluenesulphonic Acid (1/1) Monohydrate Co-Crystal]"
–,–,–,Stable,+45%,+60%,+35%,"COc1ccc2cccc(CCNC(C)=O)c2c1.Cc1ccc(S(=O)(=O)O)cc1 [Compound of Example 2, Agomelatine/p-Toluenesulphonic Acid (1/1) Co-Crystal]"
